According to ChEMBL document CHEMBL5223106, “Targeting non-alcoholic fatty liver disease: Design, X-ray co-crystal structure and synthesis of 'first-in-kind' inhibitors of serine/threonine kinase25” (Bioorg Med Chem Lett, 2022):
pIC50: −log10 of the molar value. Values belong to the compound of their own block, whether it stands above or below them. The source made the active and inactive calls. The calls are words filed in the database; no cut-off is given here.

How the values were obtained:
[1] = target: T1, Serine/threonine-protein kinase 25 (Homo sapiens, UniProt O00506); assay: Inhibition of STK25 (unknown origin) by FRET assay
[2] = Clearance in mouse microsomes; format: ADME, Microsome
[3] = Clearance in human microsomes; format: ADME, Microsome
[4] = target: T1, Serine/threonine-protein kinase 25; assay: Inhibition of STK25 (unknown origin) by cellular target engagement assay
Target sequence in this assay (O00506 whole entry): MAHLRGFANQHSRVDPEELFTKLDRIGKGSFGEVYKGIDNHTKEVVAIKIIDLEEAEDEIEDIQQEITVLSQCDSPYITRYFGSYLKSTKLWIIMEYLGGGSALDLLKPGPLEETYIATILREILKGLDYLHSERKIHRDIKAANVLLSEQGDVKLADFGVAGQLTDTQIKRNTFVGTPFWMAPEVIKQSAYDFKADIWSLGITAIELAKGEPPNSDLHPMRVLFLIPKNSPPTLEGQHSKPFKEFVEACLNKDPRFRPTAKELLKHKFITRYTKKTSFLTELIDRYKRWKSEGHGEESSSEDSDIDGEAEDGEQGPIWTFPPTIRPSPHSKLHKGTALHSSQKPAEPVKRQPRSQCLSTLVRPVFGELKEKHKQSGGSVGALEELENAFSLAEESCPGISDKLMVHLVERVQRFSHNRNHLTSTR

[5] = Permeability of the compound in human Caco-2 cells at 10 uM; format: ADME, cell-based; details: caco-2, 10 µM
[6] = Efflux ratio of permeability across basolateral to apical side over apical to basolateral side in human Caco-2 cells; format: ADME, cell-based
[7] = Plasma protein binding in mouse plasma assessed as free fraction; format: ADME, cell-free
[8] = Cytotoxicity against human HepG2 cells assessed as cell growth inhibition; format: toxicity, cell-based
[9] = Solubility of compound; format: physicochemical
[10] = target: T1, Serine/threonine-protein kinase 25; assay: Inhibition of STK25 (unknown origin)
Target sequence in this assay (O00506 whole entry): as above

pIC50 [1]: 6.06
SMILES: CC(C)(C)c1cc(NC(=O)c2ccc(S(=O)(=O)NC3CCCC3)cc2)n[nH]1

CL [2]: 145 mL/min/g | CL [3]: 75 mL/min/g | pIC50 [1]: 6.64 | pIC50 [4]: 6.68 | permeability [5]: 100% | efflux ratio [6]: 1 | fraction unbound [7]: 0.26 | solubility [9]: > 100 µM
SMILES: CC(C)(C)c1cc(NC(=O)c2ccc(S(=O)(=O)N3CCCC3)cc2)n[nH]1
pIC50 [8]: < 4.00

pIC50 [10]: 6.34
SMILES: O=C(Nc1c[nH]nc1-c1nc2cc(CN3CCOCC3)ccc2[nH]1)NC1CC1 [AT-9283]

inhibition [1]: inactive
SMILES: CC(C)(C)c1cc(NC(=O)c2nnn3c2CO[C@H](Cc2ccccc2)C3)n[nH]1

inhibition [1]: inactive
SMILES: CC(C)(C)c1cc(NC(=O)c2nnn3c2CO[C@@H](Cc2ccccc2)C3)n[nH]1

pIC50 [1]: 6.21
SMILES: CCCCOc1ccc(C(=O)Nc2cc(C(C)(C)C)[nH]n2)cc1

inhibition [1]: inactive
SMILES: CC(C)(C)c1cc(NC(=O)c2nnn3c2CO[C@@H](c2ccccc2)C3)n[nH]1

pIC50 [10]: 7.92
SMILES: Cc1ccc(C(=O)Nc2cc(C(C)(C)C)n[nH]2)cc1-n1cc(-c2cncc(N3CCOCC3)c2)nn1

pIC50 [1]: 5.29
SMILES: CC(C)(C)c1cc(NC(=O)c2ccc(C(=O)N3CCCC3)cc2)n[nH]1

inhibition [1]: inactive
SMILES: CC(C)(C)c1cc(NC(=O)c2nnn3c2CO[C@H](c2ccccc2)C3)n[nH]1
